Measurements taken from US8304377B2, “Sulfonate surfactants and methods of preparation and use” (Dow Global Technologies LLC, priority 2009, dated 2012).

Legend:
Daphna magna = assay: 48-hour acute toxicity to Daphnia; format: in vivo
Description: The study procedures and test methods are based on the recommendations of the following guidelines:
Data from the aquatic toxicity tests of the isolated and purified C12 mono and disulfonates from Example 11 is shown in Table 3.

Desmondesmus subspicatus = assay: Fresh water algal growth inhibition test (OECD 201); format: cell-based; settings: growth rate, 0-3; read-out: Fresh Water algal growth inhibition test with Desmondesmus subspicatus ErC50/0-3
Description: The study procedures and test methods are based on the recommendations of the following guidelines: Organization for Economic Cooperation and Development (OECD): OECD Guidelines for the Testing of Chemicals, “Freshwater Alga and Cyanobacteria, Growth Inhibition Test”, Procedure 201, adopted 23 Mar. 2006; European Economic Community (EEC): Commission directive 92/69/EEC of 31 Jul. 1992, Methods for the determination of ecotoxicity, C.3., “Algal Inhibition Test”. Data from the aquatic toxicity tests of the isolated and purified C12 mono and disulfonates from Example 11 is shown in Table 3.

[1] = Solubility evaluation, visual assessment in caustic, calcium chloride and cold water; format: physicochemical
Description: The final concentrations are: 0.1 wt % for surfactant, 10 wt % for NaOH.
The final concentrations are: 0.1 wt % for surfactant, 1 M for CaCl2.
, C12, and C14 sulfonate compositions of the invention, as produced in Examples 5, 7, and 8, in 10% sodium hydroxide, 1M calcium chloride, […] 2A1 are shown in Table 2 below, and indicate that these new materials have desirable characteristics.

Row | Visual assessment, 0.1 wt % surfactant in 1M CaCl2 ([1]; 0.1 wt % surfactant, 1 M CaCl2) | Visual assessment, 0.1 wt % surfactant in 10% NaOH ([1]; 0.1 wt % surfactant, 10 wt % NaOH) | Visual assessment, 1 wt % surfactant at 7° C. ([1]; 1 wt % surfactant, 7° C.) | Compound | EC50 (Daphna magna) | EC50 (Desmondesmus subspicatus)
1 | – | – | – | CCCCCCCCCCCCOC(CS(=O)(=O)[O-])CS(=O)(=O)[O-].[Na+].[Na+] [sodium 2-(dodecanyloxy)propane-1,3-disulfonate] | > 100 µg/mL | > 100 µg/mL
2 | cloudy | cloudy | cloudy | linear alkylbenzene sulfonate [LAS] | – | –
